Results on 14 compounds are retold here after PubChem BioAssay (NCI).

Some test systems named below: HCT-15 colon; CCRF-CEM leukemia; OVCAR-5 ovarian; SF-539 CNS; NCI-H522 lung; CAKI-1 renal; SNB-75 CNS; NCI-H23 lung; SK-MEL-5 melanoma; U251 CNS.
Common to all, as to assay: NCI-60 cell line screen, 48 h

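Briefly, cells in 96-well plates were exposed to five compound concentrations for 48 h, and endpoints were estimated by linear interpolation. GI50 marks 50% less growth. TGI: total growth inhibition.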

On to `Nc1nccc(-c2c(-c3ccc(F)cc3)ncn2C2CCC(O)CC2)n1` (centres undefined), for which the GI50 was 7.15 µM with HCT-15 colon; 13.4 µM with CCRF-CEM leukemia; 8.45 µM in the assay on OVCAR-5 ovarian; greater than 23.2 µM in the assay with SF-539 CNS; 5.49 µM in the assay with NCI-H522 lung; 7.13 µM in the assay with CAKI-1 renal. For the same compound, the GI50 in the assay with SNB-75 CNS is 6.61 µM; with NCI-H23 lung, 9.77 µM; with SK-MEL-5 melanoma, 3.94 µM; in the assay with U251 CNS it was 9.99 µM. In addition, the TGI in the assay with HCT-15 colon is greater than 25 µM; in the assay with CCRF-CEM leukemia, greater than 25 µM; with OVCAR-5 ovarian it was greater than 25 µM; with SF-539 CNS it was greater than 25 µM; in the assay with NCI-H522 lung, greater than 23.1 µM; in the assay with CAKI-1 renal it was greater than 25 µM. Moreover, the TGI is greater than 21 µM in the assay on SNB-75 CNS, greater than 25 µM with NCI-H23 lung, greater than 25 µM with SK-MEL-5 melanoma and greater than 25 µM in the assay on U251 CNS.

For the compound `Cc1cc(Cl)cc2c1NC(=O)C2(O)CC(=O)c1ccco1` (centres undefined), the TGI in the assay with HCT-15 colon is greater than 100 µM; in the assay on CCRF-CEM leukemia, 57.3 µM; in the assay on OVCAR-5 ovarian, greater than 100 µM; with SF-539 CNS, greater than 100 µM; in the assay on NCI-H522 lung, greater than 100 µM; with CAKI-1 renal, greater than 100 µM. Also, the TGI was greater than 100 µM in the assay on SNB-75 CNS, greater than 100 µM in the assay with NCI-H23 lung, 51.5 µM in the assay on SK-MEL-5 melanoma and greater than 100 µM with U251 CNS.

As to `CCCn1c(=S)sc2c1nc(C)n1c(Nc3ccccc3)nnc21`, the GI50 is 5.09 µM in the assay with HCT-15 colon; 4.32 µM in the assay with CCRF-CEM leukemia; 21 µM in the assay with OVCAR-5 ovarian; 7.45 µM in the assay with SF-539 CNS; 3.57 µM with NCI-H522 lung; 6.05 µM with CAKI-1 renal. The GI50 is 12.9 µM in the assay with SNB-75 CNS, 2.77 µM in the assay on NCI-H23 lung, 3.31 µM in the assay on SK-MEL-5 melanoma and 4.02 µM in the assay with U251 CNS. Also, the TGI was greater than 100 µM in the assay with HCT-15 colon; greater than 100 µM in the assay on CCRF-CEM leukemia; greater than 100 µM in the assay with OVCAR-5 ovarian; 30.3 µM in the assay with SF-539 CNS; 15.5 µM in the assay on NCI-H522 lung; 62.4 µM in the assay with CAKI-1 renal. The TGI in the assay on SNB-75 CNS was 71 µM; in the assay with NCI-H23 lung, 11.1 µM; in the assay with SK-MEL-5 melanoma it was 11.2 µM; with U251 CNS, greater than 100 µM.

`Cc1ccc(C(=O)N(CCCN)C(c2oc3cc(Cl)ccc3c(=O)c2Cc2ccccc2)C(C)C)cc1` (centres undefined): the GI50 is less than 0.01 µM in the assay on HCT-15 colon; less than 0.01 µM in the assay on CCRF-CEM leukemia; less than 0.01 µM in the assay with OVCAR-5 ovarian; less than 0.01 µM in the assay on SF-539 CNS; less than 0.01 µM in the assay with NCI-H522 lung; 0.0492 µM in the assay on CAKI-1 renal. The GI50 in the assay with SNB-75 CNS, in the assay on NCI-H23 lung, in the assay with SK-MEL-5 melanoma and with U251 CNS was less than 0.01 µM in each case. Besides, the TGI was 1.57 µM in the assay with HCT-15 colon; 1.7 µM in the assay on CCRF-CEM leukemia; 1.78 µM in the assay with OVCAR-5 ovarian; less than 0.01 µM in the assay with NCI-H522 lung; 1.94 µM with CAKI-1 renal; 1.46 µM in the assay on SNB-75 CNS. Moreover, the TGI in the assay on NCI-H23 lung was 1.61 µM; in the assay on SK-MEL-5 melanoma, 1.68 µM; in the assay with U251 CNS, 1.37 µM.

As to `Cc1c(C(=O)C/C(=N/NC(=O)C[N+](C)(C)C)C(=O)Nc2ccc(Cl)cc2)[n+](=O)c2ccccc2n1O`, the TGI in the assay on HCT-15 colon, with CCRF-CEM leukemia, with OVCAR-5 ovarian, in the assay with SF-539 CNS, in the assay with NCI-H522 lung and with CAKI-1 renal was greater than 100 µM throughout. In addition, the TGI in the assay on SNB-75 CNS, in the assay with NCI-H23 lung, with SK-MEL-5 melanoma and with U251 CNS was greater than 100 µM throughout.

Regarding `Cc1cc2c(cc1Cl)SC1=NN(C)S(=O)N1S2(=O)=O` (centres undefined), the GI50 in the assay with HCT-15 colon, in the assay with CCRF-CEM leukemia, in the assay on OVCAR-5 ovarian, in the assay on SF-539 CNS, with NCI-H522 lung and in the assay on CAKI-1 renal was greater than 100 µM in each case. Moreover, the GI50 was 58.7 µM in the assay with SNB-75 CNS, greater than 100 µM in the assay on NCI-H23 lung, greater than 100 µM in the assay on SK-MEL-5 melanoma and greater than 100 µM with U251 CNS. The TGI in the assay on HCT-15 colon, in the assay with CCRF-CEM leukemia, in the assay on OVCAR-5 ovarian, with SF-539 CNS, in the assay on NCI-H522 lung and in the assay with CAKI-1 renal was greater than 100 µM in each case. Moreover, the TGI in the assay with SNB-75 CNS, with NCI-H23 lung, in the assay with SK-MEL-5 melanoma and in the assay with U251 CNS was greater than 100 µM in each case.

In the case of `CCC[CH2][Sn]1([CH2]CCC)[O]C(=O)CN=Cc2c(ccc3ccccc23)[O]1`, the GI50 in the assay with HCT-15 colon was 0.491 µM; in the assay on OVCAR-5 ovarian, 1.93 µM; with SF-539 CNS, 1.51 µM; with NCI-H522 lung, 0.0605 µM; in the assay on CAKI-1 renal it was 0.0629 µM; with SNB-75 CNS it was 0.295 µM. Further, the GI50 is 0.235 µM in the assay with NCI-H23 lung, 1.81 µM in the assay with SK-MEL-5 melanoma and 0.351 µM in the assay with U251 CNS. The TGI was 1.75 µM in the assay on HCT-15 colon; 3.35 µM with OVCAR-5 ovarian; greater than 100 µM in the assay on SF-539 CNS; 0.198 µM in the assay on NCI-H522 lung; 0.593 µM in the assay with CAKI-1 renal; 1.03 µM in the assay on SNB-75 CNS. The figures for the TGI in the assay on NCI-H23 lung, in the assay on SK-MEL-5 melanoma and in the assay on U251 CNS were 1.11 µM, greater than 100 µM and 1.2 µM, respectively.

Take `COc1ccc2c(c1)C(=O)c1c-2n(CCCn2ccnc2)c(=O)c2cc([N+](=O)[O-])ccc12`: the GI50 in the assay with HCT-15 colon was less than 0.0329 µM; in the assay with OVCAR-5 ovarian it was less than 0.0156 µM; in the assay on SF-539 CNS, less than 0.01 µM; in the assay on NCI-H522 lung it was less than 0.0134 µM; in the assay on CAKI-1 renal, less than 0.01 µM; with SNB-75 CNS, less than 0.0138 µM. Besides, the GI50 with NCI-H23 lung, with SK-MEL-5 melanoma and with U251 CNS was less than 0.01 µM each time. Besides, the TGI in the assay on HCT-15 colon was greater than 100 µM; with SF-539 CNS it was 0.0101 µM; in the assay on NCI-H522 lung, 3.99 µM; in the assay with CAKI-1 renal, 0.366 µM; with SNB-75 CNS it was 0.41 µM; in the assay on NCI-H23 lung, less than 0.01 µM. The TGI in the assay on SK-MEL-5 melanoma is less than 0.01 µM; with U251 CNS, 0.166 µM.

In the case of `CC(C)(CO)N1CCN(C(=S)Nc2ccccc2)CC1`, the TGI in the assay on HCT-15 colon, in the assay on OVCAR-5 ovarian, with SF-539 CNS, in the assay on NCI-H522 lung, with CAKI-1 renal and with SNB-75 CNS was greater than 100 µM each time. Also, the TGI with NCI-H23 lung, with SK-MEL-5 melanoma and in the assay on U251 CNS was greater than 100 µM throughout.

For the compound `O=c1cc(-c2ccccc2)oc2cc(OC/C(=N/O)c3ccccc3)ccc12`, the GI50 in the assay with HCT-15 colon is 22.2 µM; with OVCAR-5 ovarian it was greater than 50 µM; with SF-539 CNS, 10.8 µM; with NCI-H522 lung it was 9.61 µM; with CAKI-1 renal it was 12.8 µM; in the assay with SNB-75 CNS, 9.01 µM. In addition, the values for the GI50 with NCI-H23 lung, in the assay on SK-MEL-5 melanoma and in the assay with U251 CNS were 22.6 µM, 20.7 µM and 10.1 µM, respectively. The TGI in the assay on HCT-15 colon is greater than 50 µM; in the assay on OVCAR-5 ovarian it was greater than 50 µM; in the assay on SF-539 CNS it was 23.6 µM; in the assay on NCI-H522 lung it was greater than 50 µM; in the assay with CAKI-1 renal it was greater than 50 µM; with SNB-75 CNS it was 32.6 µM. Also, the TGI in the assay with NCI-H23 lung was greater than 50 µM; with SK-MEL-5 melanoma it was greater than 50 µM; in the assay on U251 CNS, 20 µM.

As for `CCc1ccccc1NC(=O)C1=C(C)NC(C)=C(C(=O)Nc2ccccc2CC)C1c1ccc2c(c1)OCO2`, the TGI is 84.4 µM with CCRF-CEM leukemia; 82.9 µM in the assay on OVCAR-5 ovarian; 45.8 µM with SF-539 CNS; greater than 100 µM in the assay on NCI-H522 lung; 88.5 µM with CAKI-1 renal; 89.3 µM with SNB-75 CNS. Moreover, the values for the TGI with NCI-H23 lung, with SK-MEL-5 melanoma and in the assay on U251 CNS were greater than 100 µM, greater than 100 µM and 97.1 µM, respectively.

Turning to `CNC(=O)C1CCc2nnc(-c3ccccc3)n21` (centres undefined), the TGI in the assay on HCT-15 colon, with CCRF-CEM leukemia, in the assay with SF-539 CNS, in the assay with NCI-H522 lung, with CAKI-1 renal and with SNB-75 CNS was greater than 100 µM each time. Also, the TGI in the assay on SK-MEL-5 melanoma and with U251 CNS was greater than 100 µM throughout.

For the compound `Nc1nc(N(Cc2ccccc2)c2ccccc2)c2cn[nH]c2n1`, the GI50 in the assay with HCT-15 colon was 4.24 µM; in the assay on CCRF-CEM leukemia, 4.32 µM; with SF-539 CNS, 2.95 µM; with NCI-H522 lung, 2.62 µM; in the assay with CAKI-1 renal, 3.67 µM; in the assay on SNB-75 CNS, 2.47 µM. Further, the results for the GI50 in the assay on NCI-H23 lung, in the assay with SK-MEL-5 melanoma and with U251 CNS were 6.06 µM, 3.04 µM and 4.35 µM, respectively. Further, the TGI in the assay with HCT-15 colon, in the assay with CCRF-CEM leukemia, with SF-539 CNS, in the assay with NCI-H522 lung, with CAKI-1 renal and with SNB-75 CNS was greater than 100 µM each time. The TGI in the assay on NCI-H23 lung, with SK-MEL-5 melanoma and in the assay with U251 CNS was greater than 100 µM in each case.

For the compound `O=S(=O)(NC1=NCCN1C(=S)SN1CCn2c1nsc2=S)c1cccc(Cl)c1`, the GI50 in the assay with HCT-15 colon was 11.9 µM; with CCRF-CEM leukemia it was 3.81 µM; with OVCAR-5 ovarian it was 19.7 µM; with SF-539 CNS it was 19.4 µM; with NCI-H522 lung, 5.58 µM; in the assay on CAKI-1 renal it was 6.24 µM. In addition, the values for the GI50 in the assay on SNB-75 CNS, with SK-MEL-5 melanoma and in the assay with U251 CNS were 29.2 µM, 16.7 µM and 13.6 µM, respectively. Also, the TGI is 26.7 µM with HCT-15 colon; greater than 100 µM in the assay with CCRF-CEM leukemia; 39.2 µM with OVCAR-5 ovarian; 34.2 µM in the assay on SF-539 CNS; 18.4 µM in the assay with NCI-H522 lung; 23.5 µM in the assay on CAKI-1 renal. The results for the TGI in the assay on SNB-75 CNS, in the assay with SK-MEL-5 melanoma and in the assay with U251 CNS were 55.6 µM, 31.9 µM and 27.8 µM, respectively.
